From patent US10894837B2, “MMP9 inhibitors and uses thereof in the prevention or treatment of a depigmenting disorder” (UNIVERSITE DE BORDEAUX, priority 2016, dated 2021)

Assays:
Type in all cases: cell-based
MMP9 gene expression = experiment: Real-time PCR analysis of MMP9 gene expression in reconstructed human pigmented epidermis treated with TNFα and IFNγ; details: 24 h, 10 ng/ml TNFα and IFNγ, 1 μM and 10 μM inhibitor, real-time PCR (FIG. 13A)
Procedure: (§1) Reconstructed human pigmented epidermis were treated 24 h with or without 10 ng/ml of TNFα and IFNγ in the presence or absence of 1 μM and 10 μM of MMP9 inhibitors ab142180 or SB-CT. (A) Real-time PCR analysis of MMP9 gene expression. Results are expressed as a fold increase above control culture. GAPDH was used as a housekeeping gene. (B) Measurement of MMP9 levels by ELISA in cell-free supernatants.
(§2) As discussed above, TNFα and IFNγ induce MMP9 gene expression in melanocyte. Inventors used two commercially available synthetic MMP9 inhibitors, SB3CT (a […]) and a selective MMP9 inhibitor (ab142180), to assess whether such inhibition could inhibit TNFα and IFNγ effects on depigmentation. In vitro reconstructed human epidermis containing melanocytes were stimulated with these two cytokines in the presence or absence of the two different MMP9 inhibitors for 24 h (FIG. 5). The combination of TNFα and IFNγ induced melanocyte detachment and E-cadherin inhibition.
After 10 days of reconstruction (D10), reconstructed human pigmented epidermis (RHEm) are placed in 6 wells plate (NUNC reference 140675) in 2 ml of culture medium without hydrocortisone to which 10 ng/ml of interferon (IFN)-γ (R&D systems) and 10 ng/ml of “tumor necrosis factor (TNF)-α” (R&D systems) are added. A control condition without cytokines addition is performed. […]

[1] = test system: Reconstructed human epidermis containing melanocytes; experiment: TNFα and IFNγ-induced melanocyte detachment in reconstructed human epidermis, immunofluorescence of melan-A and E-cadherin; details: 24 h, 20 ng/ml TNFα and IFNγ, 10 μM inhibitor (FIG. 5)
Procedure: Reconstructed human epidermis containing melanocytes were stimulated 24 h with or without 20 ng/ml of TNFα and IFNγ in the presence or absence of 10 μM of MMP9 inhibitor ab142180 or SB-CT. Immunofluorescence microscopy analysis of melan-A (red) and E-cadherin (green) expression, Magnification 400×. White arrows show melanocytes that are detached from the basal layer of the epidermis.
as §2
Pigmented epidermis (RHEm) are reconstructed from normal human keratinocytes (NHEK) and from normal human melanocytes (NHEM), previously isolated from preputial samples. […]
Then reading with a fluorescence microscope for the analysis of melanocytes detachment.

MMP9 = MMP9 levels by ELISA in cell-free supernatants of reconstructed human pigmented epidermis treated with TNFα and IFNγ; details: 24 h, 10 ng/ml TNFα and IFNγ, 1 μM and 10 μM inhibitor, ELISA in cell-free supernatants (FIG. 13B)
Procedure: as §1, §2
After 10 days of reconstruction (D10), reconstructed human pigmented epidermis (RHEm) are placed in 6 wells plate (NUNC reference 140675) in 2 ml of culture medium without hydrocortisone to which 10 ng/ml of interferon (IFN)-γ (R&D systems) and 10 ng/ml of “tumor necrosis factor (TNF)-α” (R&D systems) are added. A control condition without cytokines addition is performed. Each experimental condition is performed in duplicate or triplicate.

Row | SMILES | MMP9 expression induced by the combination of IFNγ and TNFα, gene level (MMP9 gene expression) | TNFα and IFNγ-induced melanocyte detachment and E-cadherin inhibition [1] | MMP9 expression induced by the combination of IFNγ and TNFα, protein level (MMP9 production) (MMP9) | MMP9 expression induced by the combination of IFNγ and TNFα, protein level (MMP9 production) (MMP9; listed as SB-CT)
1 | O=S(=O)(CC1CS1)c1ccc(Oc2ccccc2)cc1 (stereo not shown) [SB3CT, 2-[[(4-phenoxyphenyl)sulfonyl]methyl]-Thiirane] | reduced | strongly inhibited | reduced | reduces
2 | CCN(CC)Cc1cc(C)c(N(Cc2ccccc2)S(=O)(=O)c2ccc(OC)cc2)c(C(=O)NO)c1 [ab142180, 2-(N-benzyl-4-methoxyphenylsulfonamido)-5-((diethylamino)methyl)-N-hydroxy-3-methylbenzamide] | reduced | strongly inhibited | reduced | 
